The results in this text go back to patent publication US4235905A, “1H-Pyrimido[4,5-c]-1,2-diazepines” (Burroughs Wellcome Co., priority 1977, dated 1980).

Like-named read-outs stand apart in the source and are kept apart here. Bounds are passed on as bounds.

Data set [1] has as its system Eimeria tenella (Weybridge). Description: Anti-coccidial activity in vitro, chick embryo liver cell cultures with Eimeria tenella sporozites. It is filed as cell-based. Conditions: for Activity, Alone: compound alone; for Activity, With DV/SQX: with sulphaquinoxaline (0.01 μg/ml) and diaveridine (0.031 μg/ml); for minimal effective concentration: Eimeria tenella, read-out: minimum active anti-coccidial amount. As for the experimental part:
The anti-coccidial activity of compounds of formula (III) alone and in combination with a mixture of diaveridine (DV) and sulphaquinoxaline (SQX) in vitro was tested according to the following procedure.
Using standard test procedures employing primary explant cultures of chick embryo liver cells and a suspension of Eimeria tenella (Weybridge) sporozites the activity of the compounds was determined at various concentrations. In the above test, each test compound was used either alone or in combination with sulphaquinoxaline (0.01 μg/ml) and diaveridine (0.031 μg/ml). It should be noted that the minimum active anti-coccidial amounts of sulphaquinoxaline and diaveridine are 0.024 μg/ml and 0.098 μg/ml respectively.
The following results were obtained wherein activity is expressed as follows: […]

Another data set can be described thus: LD50 in mice. Conditions: mouse, in vivo, ip. The procedure:
By standard techniques the LD50 values of the following compounds of formula (I) were determined in mice.

Another data set deals with Staphylococcus aureus. Description: Antibacterial activity of trimethoprim and sulphamethoxazole alone and in combination with compounds of formula (II) (activity index). Conditions: compound of formula (II) at 50 μg/ml, viable counts after 24 hours incubation of 10^6 organisms per ml; for activity index, SMX: in combination with sulphamethoxazole (SMX); for activity index, TMP: in combination with trimethoprim (TMP). The format is cell-based. As for the experimental part: The antibacterial activity against Staphylococcus aureus of trimethoprim (TMP) and sulphamethoxazole (SMX) alone and in combination with compounds of formula (II) were compared.
The results shown in the table are expressed as an activity index which is: [formula] the effect of the compounds being measured by viable counts after 24 hours incubation of 10^6 organisms per ml.
In this test, the compounds of formula (II) were present at 50 μg/ml.
An activity index ≥2 is indicative of substantial potentiation: […]

For data set [2], the system named is Weybridge strain of Eimeria tenella. As to the kind of experiment: Anti-coccidial activity in vivo in chicks, caecal lesion score. Conditions: compound 200 ppm in diet with DV 20 ppm and SQX 20 ppm, sixth day after infection, scale 0-3, dead = 4. As for the experimental part: Compounds of formula (III) were tested for anti-coccidial activity in vivo in combination with diaveridine (DV) and sulphaquinoxaline (SQX), each at 20 ppm, according to the following procedure. Groups of five, one week old chicks were each injected orally with 6,000 sporulated o cysts of the Weybridge strain of Eimeria tenella. Drugs were administered in LD 5 chick mash deficient in Vitamin K, beginning on the day of infection and continuing for 7 days. On the sixth day after infection, caecal lesions of surviving chicks were scored on a scale of 0, 1, 2 or 3 and any dead chicks were scored as 4.

Consider `CN1N=C(c2ccccc2)C=C(c2ccccc2)c2c1nc(N)[nH]c2=O` [Example 1, 8-Amino-3,5-diphenyl-1-methyl-1H-pyrimido{4,5-c}-1,2-diazepin-6(7H)-one], for which, in data set [1] (concentration 25 μg/ml), the “Activity, Alone” value is 4 (1-25% parasite development) and the “Activity, With DV/SQX” value was 4 (1-25% parasite development).

In the case of `CC1=CC(C)=NN(C)c2nc(N)[nH]c(=O)c21` [Example 2, 8-Amino-1,3,5-trimethyl-1H-pyrimido{4,5-c}-1,2-diazepin-6(7H)-one], the LD50 in the data set “LD50 in mice” is approximately 500 mg/kg.

Turning to `COC(=O)C1=NN(C)c2nc(N)[nH]c(=O)c2C(c2cccc(O)c2)=C1` [Example 3, 8-Amino-3-carbomethoxy-5-(3-hydroxyphenyl)-1-methyl-1H-pyrimido{4,5-c}-1,2-diazepin-6(7H)-one], in the data set on Staphylococcus aureus, the “activity index, SMX” value is 2.7 and the “activity index, TMP” value is 0.9.

Consider `CCOC(=O)C1=NN(C)c2nc(N)[nH]c(=O)c2C(c2ccccc2)=C1` [Example 5, 8-Amino-3-carbethoxy-1-methyl-5-phenyl-1H-pyrimido-{4,5-c}-1,2-diazepin-6(7H)-one], for which, in the data set with Staphylococcus aureus, the “activity index, SMX” value was more than 2.8 and the “activity index, TMP” value amounted to 2.0.

As to `COC(=O)C1=NN(C)c2nc(N)[nH]c(=O)c2C(c2cc(OC)c(OC)c(OC)c2)=C1` [Example 6, 8-Amino-3-carbomethoxy-1-methyl-5-(3,4,5-trimethoxyphenyl)-1H-pyrimido{4,5-c}-1,2-diazepin-6(7H)-one], in data set [2], the Lesion score is given as 0.6. The “Activity, Alone” value is 2 (51-75% parasite development) in data set [1] (concentration 1.56 μg/ml), 3 (26-50% parasite development) in data set [1] (concentration 6.25 μg/ml), 3 (26-50% parasite development) in data set [1] (concentration 25 μg/ml) and 3 (26-50% parasite development) in data set [1] (concentration 100 μg/ml). Also, the “Activity, With DV/SQX” value is listed as 3 (26-50% parasite development) in data set [1] (concentration 1.56 μg/ml), 3 (26-50% parasite development) in data set [1] (concentration 6.25 μg/ml), 4 (1-25% parasite development) in data set [1] (concentration 25 μg/ml) and 5 in data set [1] (concentration 100 μg/ml).

For the compound `CCOC(=O)C1=NN(C)c2nc(N)[nH]c(=O)c2C(c2ccc(OC)cc2OC)=C1` [Example 7, 8-Amino-3-carbethoxy-1-methyl-5-(2,4-dimethoxyphenyl)1H-pyrimido{4,5-c}-1,2-diazepin-6(7H)-one], the Lesion score in data set [2] was found to be 1.2. Further, the “Activity, Alone” value in data set [1] (concentration 1.56 μg/ml) is recorded as 0 (95-100% parasite development); in data set [1] (concentration 6.25 μg/ml) it was 2 (51-75% parasite development); in data set [1] (concentration 25 μg/ml) it was 4 (1-25% parasite development); in data set [1] (concentration 100 μg/ml) it was 4 (1-25% parasite development). For the same compound, the “Activity, With DV/SQX” value in data set [1] (concentration 1.56 μg/ml) is 2 (51-75% parasite development); in data set [1] (concentration 6.25 μg/ml) it was 3 (26-50% parasite development); in data set [1] (concentration 25 μg/ml), 5; in data set [1] (concentration 100 μg/ml), 5.

With `COc1ccc(Cc2cnc(N)nc2N)cc1OC` [diaveridine, reference compound], the minimal effective concentration in data set [1] is 0.098 µg/mL.

`COC(=O)C1=NN(C)c2nc(N)[nH]c(=O)c2C(c2cc(OC)c(OC)c(OC)c2)=C1` [drawing 31] showed an LD50 in “LD50 in mice” of more than 500 mg/kg.

Turning to `Nc1ccc(S(=O)(=O)Nc2cnc3ccccc3n2)cc1` [sulphaquinoxaline, reference compound], in data set [1] (in vitro, alone), the minimal effective concentration stood at 0.024 µg/mL.
